This is an account of results in patent US9227971B2, “Pyrazolo[1,5-a]pyrimidine compounds as mTOR inhibitors” (Merck Sharp & Dohme Corp., priority 2010, dated 2016).

Assay [1] relates to phosphorylated 4E-BP1 Thr37/46 (p4E-BP1 Thr37/46), mTORC1 activity, PC3 cells. The assay can be described thus: mTOR target engagement assay, immunofluorescent cell-based, p4E-BP1 Thr37/46 readout (mTORC1 activity). Conditions: read-out: p4E-BP1 Thr37/46 IC50. Put shortly: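 Read-out is fluorescence intensity of immunostained p4E-BP1 Thr37/46 in fixed PC3 cells, fitted to a logistic curve for IC50 with DMSO-only wells as top. Cells had been exposed to serial compound dilutions for ninety minutes at 37° C in 5% FBS medium with 0.25% DMSO.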

For assay [2], the system named is phosphorylated AKT Ser473 (pAKT S473), mTORC2 activity, PC3 cells. The assay can be described thus: mTOR target engagement assay, immunofluorescent cell-based, pAKT S473 readout (mTORC2 activity). Summed up: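 After blocking, cells were stained overnight at 4 °C with anti-pAKT S473 antibody, then a fluorescent secondary; inhibition was read as reduced fluorescence intensity.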

Where [3] appears, read: Homo sapiens, PC-3, PC3 cells, compound treatment ninety minutes at 37° C.
Setting [4] is: PC3 cells, compound treatment ninety minutes at 37° C.
Where [5] appears, read: Homo sapiens, PC-3, Table 3-1, PC3 cells.
The mark [6] stands for this setting: Homo sapiens, PC-3, Table 6-1, PC3 cells.
Setting [7] is: Homo sapiens, PC-3, Table 7-2, PC3 cells.

Where two headings read alike, the source gives them in different places.

For the compound `CS(=O)(=O)c1c([C@@H]2C[C@H]3CC[C@@H](C2)N3C(=O)c2cc(N)n[nH]2)nc2c(-c3ccc(-c4ccc(F)cc4)nc3)cnn2c1N` [Compound 3.120, (3-amino-1H-pyrazol-5-yl)((1R,3s,5S)-3-(7-amino-3-(6-(4-fluorophenyl)pyridin-3-yl)-6-(methylsulfonyl)pyrazolo[1,5-a]pyrimidin-5-yl)-8-azabicyclo[3.2.1]octan-8-yl)methanone], the IC50 in assay [1] (Table 3-1, PC3 cells) lay in the range of 1 to 100 nM; in assay [2] (Table 3-1, PC3 cells) it was 1 to 100 nM.

With `COc1ccc(-c2ccc(-c3cnn4c(N)c(C(C)=O)c([C@@H]5C[C@H]6CC[C@@H](C5)N6C(=O)CO)nc34)cn2)cc1CO` [Compound 1.1.36, 1-((1R,3s,5S)-3-(6-acetyl-7-amino-3-(6-(3-(hydroxymethyl)-4-methoxyphenyl)pyridin-3-yl)pyrazolo[1,5-a]pyrimidin-5-yl)-8-azabicyclo[3.2.1]octan-8-yl)-2-hydroxyethanone], the IC50 in assay [1] (setting [3]) and in assay [2] (setting [3]) was 1 to 100 nM each time.

Take “(1R,3s,5S)-2-methoxyethyl 3-(6-acetyl-7-amino-3-(6-(1-methyl-1H-pyrazol-3-yl)pyridin-3-yl)pyrazolo[1,5-a]pyrimidin-5-yl)-8-azabicyclo[3.2.1]octane-8-carboxylate [Compound 1.1.109]”: the IC50 in assay [1] (setting [4]) and in assay [2] (setting [4]) was 1000 to 10000 nM throughout.

Consider `CC(=O)c1c([C@@H]2C[C@H]3CC[C@@H](C2)N3C(=O)c2nnc[nH]2)nc2c(-c3cnc4c(c3)CCCC4O)cnn2c1N` (stereo partly drawn) [Compound 7.58, 1-(5-((1R,3s,5S)-8-(4H-1,2,4-triazole-3-carbonyl)-8-azabicyclo[3.2.1]octan-3-yl)-7-amino-3-(8-hydroxy-5,6,7,8-tetrahydroquinolin-3-yl)pyrazolo[1,5-a]pyrimidin-6-yl)ethanone], for which the IC50 in assay [1] (Homo sapiens, PC-3, PC3 cells) was 1 to 100 nM; in assay [2] (PC3 cells), 1 to 100 nM.

With `CC(=O)c1c([C@@H]2C[C@H]3CC[C@@H](C2)N3C(=O)c2cc(N)n[nH]2)nc2c(-c3ccc(-c4ccc(F)cc4F)nc3)cnn2c1N` [Compound 1.1.166, 1-(7-amino-5-((1R,3s,5S)-8-(3-amino-1H-pyrazole-5-carbonyl)-8-azabicyclo[3.2.1]octan-3-yl)-3-(6-(2,4-difluorophenyl)pyridin-3-yl)pyrazolo[1,5-a]pyrimidin-6-yl)ethanone], the IC50 in assay [1] (setting [3]) and in assay [2] (setting [3]) was 1 to 100 nM in each case.

Take `CC(=O)c1c([C@@H]2C[C@H]3CC[C@@H](C2)N3C(=O)CNS(C)(=O)=O)nc2c(-c3ccc(-c4ccccc4)nc3)cnn2c1N` [Compound 1.1.23, N-(2-((1R,3s,5S)-3-(6-acetyl-7-amino-3-(6-phenylpyridin-3-yl)pyrazolo[1,5-a]pyrimidin-5-yl)-8-azabicyclo[3.2.1]octan-8-yl)-2-oxoethyl)methanesulfonamide]: the IC50 in assay [1] (setting [3]) and in assay [2] (setting [3]) was 100 to 1000 nM throughout.

Turning to `Cc1nnc(C(=O)N2[C@@H]3CC[C@H]2C[C@H](c2nc4c(-c5ccc(-c6ccccc6F)nc5)cnn4c(N)c2S(C)(=O)=O)C3)[nH]1` [Compound 3.133, ((1R,3s,5S)-3-(7-amino-3-(6-(2-fluorophenyl)pyridin-3-yl)-6-(methylsulfonyl)pyrazolo[1,5-a]pyrimidin-5-yl)-8-azabicyclo[3.2.1]octan-8-yl)(5-methyl-4H-1,2,4-triazol-3-yl)methanone], the IC50 in assay [1] (setting [5]) and in assay [2] (setting [5]) was 1 to 100 nM each time.

For the compound `CC(=O)c1c([C@@H]2C[C@H]3CC[C@@H](C2)N3C(=O)c2nnc[nH]2)nc2c(-c3ccc(-n4ccnc4)nc3)cnn2c1N` [Compound 1.1.129, 1-(3-(6-(1H-imidazol-1-yl)pyridin-3-yl)-5-((1R,3s,5S)-8-(4H-1,2,4-triazole-3-carbonyl)-8-azabicyclo[3.2.1]octan-3-yl)-7-aminopyrazolo[1,5-a]pyrimidin-6-yl)ethanone], the IC50 in assay [1] (setting [3]) and in assay [2] (setting [3]) was over 10000 nM throughout.

Regarding `Nc1c(S(=O)(=O)C2CC2)c([C@@H]2C[C@H]3CC[C@@H](C2)N3C(=O)c2nnc[nH]2)nc2c(-c3ccc(-c4ccccc4)nc3)cnn12` [Compound 3.160, ((1R,3s,5S)-3-(7-amino-6-(cyclopropylsulfonyl)-3-(6-phenylpyridin-3-yl)pyrazolo[1,5-a]pyrimidin-5-yl)-8-azabicyclo[3.2.1]octan-8-yl)(4H-1,2,4-triazol-3-yl)methanone], the IC50 in assay [1] (setting [5]) lay in the range of 100 to 1000 nM; in assay [2] (setting [5]), 1 to 100 nM.

With `COc1ccc(-c2ccc(-c3cnn4c(N)c(C5CC5)c([C@@H]5C[C@H]6CC[C@@H](C5)N6C(=O)c5nnc(N)[nH]5)nc34)cn2)cc1F` [Compound 4.27, (5-amino-4H-1,2,4-triazol-3-yl)((1R,3a,5S)-3-(7-amino-6-cyclopropyl-3-(6-(3-fluoro-4-methoxyphenyl)pyridin-3-yl)pyrazolo[1,5-a]pyrimidin-5-yl)-8-azabicyclo[3.2.1]octan-8-yl)methanone], the IC50 in assay [1] (setting [3]) and in assay [2] (setting [3]) was 1 to 100 nM each time.

Consider `CS(=O)(=O)c1c([C@@H]2C[C@H]3CC[C@@H](C2)N3C(=O)c2nnc[nH]2)nc2c(-c3ccc(-c4ccc(OC(F)F)cc4)nc3)cnn2c1N` [Compound 3.55, ((1R,3s,5S)-3-(7-amino-3-(6-(4-(difluoromethoxy)phenyl)pyridin-3-yl)-6-(methylsulfonyl)pyrazolo[1,5-a]pyrimidin-5-yl)-8-azabicyclo[3.2.1]octan-8-yl)(4H-1,2,4-triazol-3-yl)methanone], for which the IC50 in assay [1] (setting [5]) and in assay [2] (setting [5]) was 1 to 100 nM in each case.

Regarding `Cn1cnc(-c2ccc(-c3cnn4c(N)cc([C@@H]5C[C@H]6CC[C@@H](C5)N6C(=O)c5nnc[nH]5)nc34)cn2)n1` [Compound 2.10, ((1R,3s,5S)-3-(7-amino-3-(6-(1-methyl-1H-1,2,4-triazol-3-yl)pyridin-3-yl)pyrazolo[1,5-a]pyrimidin-5-yl)-8-azabicyclo[3.2.1]octan-8-yl)(4H-1,2,4-triazol-3-yl)methanone], the IC50 in assay [1] (setting [3]) and in assay [2] (setting [3]) was over 10000 nM in each case.

On to `CCn1ccc(-c2ccc(-c3cnn4c(N)c(C(C)=O)c([C@@H]5C[C@H]6CC[C@@H](C5)N6C(=O)c5nnc[nH]5)nc34)cn2)n1` [Compound 1.1.138, 1-(5-((1R,3s,5S)-8-(4H-1,2,4-triazole-3-carbonyl)-8-azabicyclo[3.2.1]octan-3-yl)-7-amino-3-(6-(1-ethyl-1H-pyrazol-3-yl)pyridin-3-yl)pyrazolo[1,5-a]pyrimidin-6-yl)ethanone], for which the IC50 in assay [1] (setting [3]) and in assay [2] (setting [3]) was 1 to 100 nM throughout.

Turning to `CS(=O)(=O)c1c([C@@H]2C[C@H]3CC[C@@H](C2)N3C(=O)CO)nc2c(-c3cnn(-c4ccccn4)c3)cnn2c1N` [Compound 3.124, 1-((1R,3s,5S)-3-(7-amino-6-(methylsulfonyl)-3-(1-(pyridin-2-yl)-1H-pyrazol-4-yl)pyrazolo[1,5-a]pyrimidin-5-yl)-8-azabicyclo[3.2.1]octan-8-yl)-2-hydroxyethanone], the IC50 in assay [1] (setting [5]) lay within 1000 to 10000 nM; in assay [2] (setting [5]), 100 to 1000 nM.

In the case of `CS(=O)(=O)c1c([C@@H]2C[C@H]3CC[C@@H](C2)N3C(=O)c2cc(N)n[nH]2)nc2c(-c3ccc(-c4ccccc4F)nc3)cnn2c1N` [Compound 3.134], the IC50 was 1 to 100 nM in assay [1] (Table 3-1, PC3 cells) and 1 to 100 nM in assay [2] (Table 3-1, PC3 cells).

Take `Nc1c(C2CC2)c([C@@H]2C[C@H]3CC[C@@H](C2)N3C(=O)c2cc[nH]c2)nc2c(-c3ccc(-c4ncc[nH]4)nc3)cnn12` [Compound 6.14, ((1R,3s,5S)-3-(3-(6-(1H-imidazol-2-yl)pyridin-3-yl)-7-amino-6-cyclopropylpyrazolo [1,5-a]pyrimidin-5-yl)-8-azabicyclo[3.2.1]octan-8-yl)(1H-pyrrol-3-yl)methanone]: the IC50 in assay [1] (setting [6]) lay in the range of 100 to 1000 nM; in assay [2] (setting [6]) it was 1 to 100 nM.

Consider `Cc1n[nH]c(C(=O)N2[C@@H]3CC[C@H]2C[C@H](c2nc4c(-c5ccc(C6(O)CCC6)nc5)cnn4c(N)c2S(C)(=O)=O)C3)n1` [Compound 7.29, ((1R,3s,5S)-3-(7-amino-3-(6-(1-hydroxycyclobutyl)pyridin-3-yl)-6-(methylsulfonyl)pyrazolo[1,5-a]pyrimidin-5-yl)-8-azabicyclo[3.2.1]octan-8-yl)(3-methyl-1H-1,2,4-triazol-5-yl)methanone], for which the IC50 was 100 to 1000 nM in assay [1] (Table 7-2, PC3 cells) and 100 to 1000 nM in assay [2] (Table 7-2, PC3 cells).

In the case of `CC(C)(O)c1ccc(-c2cnn3c(N)c(S(C)(=O)=O)c([C@@H]4C[C@H]5CC[C@@H](C4)N5C(=O)c4nnc[nH]4)nc23)cn1` [Compound 7.27, ((1R,3s,5S)-3-(7-amino-3-(6-(2-hydroxypropan-2-yl)pyridin-3-yl)-6-(methylsulfonyl)pyrazolo[1,5-a]pyrimidin-5-yl)-8-azabicyclo[3.2.1]octan-8-yl)(1H-1,2,4-triazol-5-yl)methanone], the IC50 in assay [1] (setting [7]) and in assay [2] (setting [7]) was 1 to 100 nM in each case.
